Experimental data from patent publication US5663344A, “Method for the synthesis of huperzine A and analogs thereof and compounds useful therein” (Mayo Foundation for Medical Education and Research, priority 1994, dated 1997).
pIC50: −log10 of the molar value.

Molecular target: T1, acetylcholinesterase (Rattus norvegicus, UniProt P37136)
T1 construct: synaptosome-rich fraction containing endogenous acetylcholinesterase enzyme; from tissue; host or cells: rat cerebral cortex, synaptosome-rich fraction (Whittaker's P2 fraction: synaptosomes and mitochondria)
T1 sequence (P37136 32-614): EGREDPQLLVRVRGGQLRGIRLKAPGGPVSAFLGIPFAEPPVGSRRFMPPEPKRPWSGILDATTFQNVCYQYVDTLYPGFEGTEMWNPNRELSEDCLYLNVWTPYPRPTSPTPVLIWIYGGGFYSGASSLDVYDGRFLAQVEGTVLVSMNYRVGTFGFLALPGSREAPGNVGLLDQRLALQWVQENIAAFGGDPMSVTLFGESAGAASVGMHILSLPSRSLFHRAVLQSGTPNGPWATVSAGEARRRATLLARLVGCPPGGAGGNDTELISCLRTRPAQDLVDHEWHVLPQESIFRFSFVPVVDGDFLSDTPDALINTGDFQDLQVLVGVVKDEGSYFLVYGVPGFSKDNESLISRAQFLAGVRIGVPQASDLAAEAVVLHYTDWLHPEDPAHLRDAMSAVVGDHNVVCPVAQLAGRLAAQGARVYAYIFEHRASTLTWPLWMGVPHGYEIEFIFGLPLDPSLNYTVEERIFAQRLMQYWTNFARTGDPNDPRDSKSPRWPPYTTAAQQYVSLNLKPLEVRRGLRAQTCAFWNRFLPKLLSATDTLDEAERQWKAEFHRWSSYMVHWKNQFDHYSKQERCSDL
Assay: Inhibition of acetylcholinesterase in rat cortex synaptosome-rich fraction (hydrolysis of labelled acetylcholine)
Assay type: biochemical
Protocol: Rats were killed by decapitation and the brains were rapidly extirpated. The cortex was dissected out on ice according to the method of Glowinski and Iversen. […] Homogenates were centrifuged at 1000× g for 10 minutes to remove cell nuclei and heavy debris. […] A portion of this synaptosome-rich fraction was added in triplicate to ice-cold pH 7.4 Krebs-Ringer medium.
Assay of acetylcholinesterase was carried out according to the method of Johnson and Russell. See C. […] Acetylcholine labelled in the acetate moiety was enzymatically hydrolyzed by incubation for 10 minutes at room temperature in the presence of the above synaptosome-rich fraction containing endogenous acetylcholinesterase enzyme. The reaction was terminated by addition of a "stopping mixture" containing chloroacetic acid (1.0M), sodium hydroxide (0.5M) and sodium cloride (2.0M) to the reaction vial. Toluene-based scintillation fluid was added to the vial, to extract the released labelled acetate into the organic phase. […] Thus, the sample can be counted directly in the same reaction vial, in which the hydrolysis of sample by acetylcholinesterase has occurred.
Inhibition of cholinesterase activity was estimated, in triplicate, in the presence of a wide range of concentrations (10^-9 to 10^-3 M).

CCC=C1C2C=C(C)CC1(N)c1ccc(=O)[nH]c1C2 (stereo not drawn) [1-carbon Analog]
inhibition of the cholinesterase enzyme (in words) (compared with huperzine A): inhibited the cholinesterase enzyme, but to a lesser extent than huperzine A | pIC50 (read-out: IC50 (extent of cholinesterase enzyme inhibition), rat cortex synaptosome-rich fraction, 10 min, room temperature, triplicate, 10^-9 to 10^-3 M): 4.00 | IC50 /IC50 of Huperzine A (relative to synthesized huperzine A, the smaller this number, the more potent the compound): 166.6
